What is called melting point is the temperature of the solid-liquid transition. `COC(=O)C(=O)Nc1ccc(Cl)cc1`: the melting point lay in the range of 162 to 164 °C.

In turn, `COc1ccc(F)cc1C1OC(=O)CC1C(=O)O` (centres undefined) gave a melting point of 41 to 43 °C.

Take `COc1cc(C)nc(NC(=O)NS(=O)(=O)c2cccc3c2S(=O)(=O)C(C)(C)S3(=O)=O)n1`: the melting point is 191 to 200 °C.

On to `CSc1nn(C)c(=O)n1Cc1cc(-c2ccccc2)ccc1C`, for which the melting point came to 95.6 °C.

In the case of `COc1cc([N+](=O)[O-])ccc1S(=O)(=O)n1c(=O)n(-c2ccccc2)c2cc(Cl)ccc21`, the melting point is more than 250 °C.

In turn, `COc1ccc(S(=O)(=O)c2ccc(C)nc2Nc2c(C)cc(C)cc2C)cc1` had a melting point of 165 to 167 °C.

Turning to `COc1cc(C2=NNC(=O)CC2)ccc1OCC1CO1` (centres undefined), the melting point was 134 to 136 °C.

`CCCCOc1cc(/C=C(\OCC)C(=O)O)ccc1OCCc1ccc(NC(=O)CC)cc1` showed a melting point of 164 °C.

`O=C(NC(CO)Cc1ccc(O)cc1)OCC1CCCCC1` (centres undefined) registered a melting point of 121 to 126 °C.

For the compound `Cc1cc(Oc2ccc3nc(COc4ccc(CC5SC(=O)NC5=O)cc4)n(C)c3c2)cc(C)c1NC(=S)Nc1ccc(Cl)cc1` (centres undefined), the melting point is 160 to 162 °C.

The compound `COc1ccc(OC)c(C=C2CCn3c2nc2ccc(Cl)cc2c3=O)c1` returned a melting point of 220 to 222 °C.

Compound `O=C1C(Br)=C(Br)C(=O)c2c(F)cccc21` had a melting point of 100 °C.

`NC(=O)C(NC(=O)OCc1ccccc1)c1ccc(CC2CC2)[nH]1` (centres undefined): the melting point was in the range of 184 to 185 °C.

As to `CCOC(=O)C(=O)CC(=O)c1cn(Cc2ccccc2OC)c2ccccc2c1=O`, the melting point lay within 154 to 156 °C.

The compound `C=CC(=O)Nc1cc2c(N(C(C)=O)c3ccc(F)c(Cl)c3)ncnc2cc1OCCCN1CCOCC1` returned a melting point of 143 °C.

The compound `COc1cc([N+](=O)[O-])ccc1S(=O)(=O)n1c(=O)n(C2CCCCCC2)c2cc(Cl)ccc21` displayed a melting point of 193 °C.

Consider `CC(=O)N[C@@H](CSC(=O)C(C)C)C(=O)NCCSC(=O)C(C)C`, for which the melting point fell in the range of 99 to 100 °C.

Take `COc1cc2c(c3c1OC(C)(C)C3)C(c1ccncc1)=NC(C)(C)C2`: the melting point lay in the range of 173 to 175 °C.

Regarding `CCc1c(N)c(C)cc(Cc2cc(C)c(N)c(CC)c2Cl)c1Cl`, the melting point was 143 to 148 °C.

With `O=c1oc(=O)n(-c2ccc(F)cc2)c2ccccc12`, the melting point lay within 199 to 201 °C.

`O=c1[nH]cc(C(F)(F)F)cc1Br` displayed a melting point of 162 to 165 °C.

The compound `CN1C(=O)C2C3CCC(CC3)C2(c2ccc(F)c(F)c2)C1=O` (centres undefined) had a melting point of 133 to 136 °C.

The compound `COC(=O)c1ccc(Cc2ccc(O)cc2)cn1` had a melting point of 184 to 186 °C.

With `Clc1ccc(/C=C/c2cc(Cl)cc(Cl)c2)cc1`, the melting point was in the range of 94 to 96 °C.

Compound `COC(=O)C1Cc2c([nH]c3ccccc23)C(c2cc(OC)ccc2OC)N1` (centres undefined) registered a melting point of 102 to 105 °C.

Regarding `N#Cc1ccc(N2C(=O)[C@H]3C(O)C(O)CN3C2=O)c2ccccc12` (some centres undefined), the melting point turned out to be 225 °C.

Compound `COc1cc(Cc2cnc(N)nc2N)cc2c1OC(C)(C)C=C2Br` returned a melting point of 238 to 239 °C.

For the compound `CCOC(=O)c1c(N2CCN(C=O)CC2)c2cc(C)ccc2n(-c2ccccc2)c1=O`, the melting point turned out to be 240 °C.

For `NC(=O)N1CCN(CC(=O)N2CCOCC2)CC1`, the melting point came out at 165 °C.

As to `CCOC(=O)CC1SC(c2cc(C(C)(C)C)c(O)c(C(C)(C)C)c2)N(CCCN(C)CCOc2ccc3c(c2)OCO3)C1=O` (centres undefined), the melting point was in the range of 88 to 89 °C.

Take `CN1CC(CN2C(=O)c3ccccc3C2=O)CC2c3cc(C(C)(C)C)cc4[nH]cc(c34)CC21` (centres undefined): the melting point lay within 132 to 137 °C.

Take `CC(C)n1c(C(=O)O)c(-c2ccc(F)cc2)c2ccccc2c1=O`: the melting point fell in the range of 128 to 130 °C.

As to `COc1cc2oc(C(=O)O)cc2cc1Cl`, the melting point was 283 °C.

In turn, `CCc1ccc(C=NNC(=O)c2ccc(O)cc2)o1` registered a melting point of 60.5 °C.

`CCOC(=S)CC/C(C)=C/Cc1c(OC)c(C)c2c(c1OC(N)=O)C(=O)OC2`: the melting point lay in the range of 145 to 147 °C.

For the compound `CCOC(=O)COc1cc(O)c2c(c1Cl)OC1(CCCCC1)CC2=O`, the melting point lay within 110 to 111 °C.

`Cc1nc(Cl)c(-c2c(F)cccc2F)n1-c1ccc(Cl)cc1` returned a melting point of 143 to 145 °C.

As to `Nc1ncccc1C(=O)NCC1CCN(CC2COc3ccccc3O2)CC1` (centres undefined), the melting point lay in the range of 104 to 106 °C.

In the case of `COC(=O)N1CCc2onc(OC)c2C1`, the melting point was 58 to 60 °C.

Compound `Nc1cnc(NCC2CCCCC2)nc1O` displayed a melting point of 180 °C.

Regarding `O=[N+]([O-])c1c(Br)nn(Cc2ccccc2)c1Br`, the melting point is 128 °C.

As to `COCCOc1nc(SC)c(C#N)c(N2CCc3ccccc3CC2)n1`, the melting point was in the range of 108 to 111 °C.

For `CCCCn1c(=O)c2nn(S(=O)(=O)c3cccc4cccnc34)cc2n(CCCC)c1=O`, the melting point was in the range of 203 to 205 °C.

As to `COC(=O)CCCc1cc2cc(C(F)(F)F)ccc2n1S(=O)(=O)c1ccc2nc(C)sc2c1`, the melting point lay within 163 to 168 °C.

`COCCc1nc2c(N)nc3ccccc3c2n1CCCNC(=O)Nc1ccccc1` gave a melting point of 40 °C.

As to `O=C1CCc2cc(-c3cccs3)ccc21`, the melting point amounted to 148 °C.

In the case of `CC(C)(C)OC(=O)NCCNC(=O)c1ncsc1Br`, the melting point fell in the range of 108 to 111 °C.

The compound `CCNC(=O)[C@@H]1Cc2ccccc2N1` gave a melting point of 92 to 95 °C.

`CSc1cc2[nH]ccc2cc1F` registered a melting point of 51 °C.

`O=C(O)c1cc(Cl)c(F)c(F)c1F` had a melting point of 123 to 124 °C.

`CCCNC(=Nc1ccc(Cl)cc1)Nc1ncccc1OCc1c(F)cccc1F` displayed a melting point of 99 to 100 °C.

With `CC(C)C(C)CCC(C)C1CCC2C3CCC4CCCCC4(C)C3CCC12C` (centres undefined), the melting point is 136 to 137 °C.

As for `CCOC(=O)CCCNc1ccc2oc(-c3ccc4ccc(Cl)cc4n3)cc2c1`, the melting point lay in the range of 154 to 155 °C.

`CC(=O)Nc1ccc2c(c1)C(=O)CCC2`: the melting point was in the range of 165 to 166 °C.

On to `COc1ccc([N+](=O)[O-])cc1NC(=O)CCCCC1CCSS1` (centres undefined), for which the melting point was 117 °C.

`CCCCOCCOc1ccc(-c2ccc3c(c2)C=C(C(=O)OC)CCN3c2ccc(S(=O)(=O)N(C)C)cc2)cc1` registered a melting point of 150 to 153 °C.

For `CC(C)(NC(=O)c1cc2c(n(CC3CCCCC3)c1=O)CCCCCC2)C(=O)O[C@H]1CO[C@H](c2ccccc2)OC1`, the melting point is 166 to 168 °C.

In turn, `CCOC(=O)C1=C(N)C(OCC)=NS1=O` (centres undefined) displayed a melting point of 154 to 155 °C.

The compound `Cc1ccc(-c2ccc(N3CCCN(c4ccc(-c5ccc(C)cc5)cn4)CC3)nc2)cc1` displayed a melting point of 245 to 247 °C.

On to `NS(=O)(=O)c1ccc(-c2oc3c(Cl)ccc(O)c3c(=O)c2-c2ccc(F)cc2)cc1`, for which the melting point is 251 to 252 °C.

`CC(C)(C)c1cc(Cl)ccc1N1CCN(C(=O)C(=O)O)CC1`: the melting point lay within 154 to 155 °C.

Compound `CCCCCNC(=O)[C@@H]1CCCN1C(=O)[C@H](C)NC(=O)CC` gave a melting point of 105 to 108 °C.

In the case of `O=C(Nc1ccc2nc3[nH]c(=O)[nH]c3cc2c1)c1ccccc1`, the melting point is more than 300 °C.

On to `COc1ccc(S(=O)(=O)N2C(=O)C(OC(=O)Oc3ccccc3)(c3ccccc3Cl)c3cc(Cl)c(OC)cc32)c(OC)c1` (centres undefined), for which the melting point was 162 to 163 °C.
